The source of these data is US9718785B2, “1,3-Disubstituted cyclopentane derivatives” (MERCK PATENT GMBH, priority 2013, dated 2017).

SMILES strings stand for the structures. A value given as a limit tells only on which side of the number the result lay.

For the experiment, the target named is T1, human recombinant full-length fatty acid synthase (FASN) (Homo sapiens, UniProt P49327).
T1 construct: 40 nM human recombinant full-length fatty acid synthase (produced in-house in SF9 cells); made in house; host or cells: SF9 insect cells
T1 sequence (P49327 whole entry): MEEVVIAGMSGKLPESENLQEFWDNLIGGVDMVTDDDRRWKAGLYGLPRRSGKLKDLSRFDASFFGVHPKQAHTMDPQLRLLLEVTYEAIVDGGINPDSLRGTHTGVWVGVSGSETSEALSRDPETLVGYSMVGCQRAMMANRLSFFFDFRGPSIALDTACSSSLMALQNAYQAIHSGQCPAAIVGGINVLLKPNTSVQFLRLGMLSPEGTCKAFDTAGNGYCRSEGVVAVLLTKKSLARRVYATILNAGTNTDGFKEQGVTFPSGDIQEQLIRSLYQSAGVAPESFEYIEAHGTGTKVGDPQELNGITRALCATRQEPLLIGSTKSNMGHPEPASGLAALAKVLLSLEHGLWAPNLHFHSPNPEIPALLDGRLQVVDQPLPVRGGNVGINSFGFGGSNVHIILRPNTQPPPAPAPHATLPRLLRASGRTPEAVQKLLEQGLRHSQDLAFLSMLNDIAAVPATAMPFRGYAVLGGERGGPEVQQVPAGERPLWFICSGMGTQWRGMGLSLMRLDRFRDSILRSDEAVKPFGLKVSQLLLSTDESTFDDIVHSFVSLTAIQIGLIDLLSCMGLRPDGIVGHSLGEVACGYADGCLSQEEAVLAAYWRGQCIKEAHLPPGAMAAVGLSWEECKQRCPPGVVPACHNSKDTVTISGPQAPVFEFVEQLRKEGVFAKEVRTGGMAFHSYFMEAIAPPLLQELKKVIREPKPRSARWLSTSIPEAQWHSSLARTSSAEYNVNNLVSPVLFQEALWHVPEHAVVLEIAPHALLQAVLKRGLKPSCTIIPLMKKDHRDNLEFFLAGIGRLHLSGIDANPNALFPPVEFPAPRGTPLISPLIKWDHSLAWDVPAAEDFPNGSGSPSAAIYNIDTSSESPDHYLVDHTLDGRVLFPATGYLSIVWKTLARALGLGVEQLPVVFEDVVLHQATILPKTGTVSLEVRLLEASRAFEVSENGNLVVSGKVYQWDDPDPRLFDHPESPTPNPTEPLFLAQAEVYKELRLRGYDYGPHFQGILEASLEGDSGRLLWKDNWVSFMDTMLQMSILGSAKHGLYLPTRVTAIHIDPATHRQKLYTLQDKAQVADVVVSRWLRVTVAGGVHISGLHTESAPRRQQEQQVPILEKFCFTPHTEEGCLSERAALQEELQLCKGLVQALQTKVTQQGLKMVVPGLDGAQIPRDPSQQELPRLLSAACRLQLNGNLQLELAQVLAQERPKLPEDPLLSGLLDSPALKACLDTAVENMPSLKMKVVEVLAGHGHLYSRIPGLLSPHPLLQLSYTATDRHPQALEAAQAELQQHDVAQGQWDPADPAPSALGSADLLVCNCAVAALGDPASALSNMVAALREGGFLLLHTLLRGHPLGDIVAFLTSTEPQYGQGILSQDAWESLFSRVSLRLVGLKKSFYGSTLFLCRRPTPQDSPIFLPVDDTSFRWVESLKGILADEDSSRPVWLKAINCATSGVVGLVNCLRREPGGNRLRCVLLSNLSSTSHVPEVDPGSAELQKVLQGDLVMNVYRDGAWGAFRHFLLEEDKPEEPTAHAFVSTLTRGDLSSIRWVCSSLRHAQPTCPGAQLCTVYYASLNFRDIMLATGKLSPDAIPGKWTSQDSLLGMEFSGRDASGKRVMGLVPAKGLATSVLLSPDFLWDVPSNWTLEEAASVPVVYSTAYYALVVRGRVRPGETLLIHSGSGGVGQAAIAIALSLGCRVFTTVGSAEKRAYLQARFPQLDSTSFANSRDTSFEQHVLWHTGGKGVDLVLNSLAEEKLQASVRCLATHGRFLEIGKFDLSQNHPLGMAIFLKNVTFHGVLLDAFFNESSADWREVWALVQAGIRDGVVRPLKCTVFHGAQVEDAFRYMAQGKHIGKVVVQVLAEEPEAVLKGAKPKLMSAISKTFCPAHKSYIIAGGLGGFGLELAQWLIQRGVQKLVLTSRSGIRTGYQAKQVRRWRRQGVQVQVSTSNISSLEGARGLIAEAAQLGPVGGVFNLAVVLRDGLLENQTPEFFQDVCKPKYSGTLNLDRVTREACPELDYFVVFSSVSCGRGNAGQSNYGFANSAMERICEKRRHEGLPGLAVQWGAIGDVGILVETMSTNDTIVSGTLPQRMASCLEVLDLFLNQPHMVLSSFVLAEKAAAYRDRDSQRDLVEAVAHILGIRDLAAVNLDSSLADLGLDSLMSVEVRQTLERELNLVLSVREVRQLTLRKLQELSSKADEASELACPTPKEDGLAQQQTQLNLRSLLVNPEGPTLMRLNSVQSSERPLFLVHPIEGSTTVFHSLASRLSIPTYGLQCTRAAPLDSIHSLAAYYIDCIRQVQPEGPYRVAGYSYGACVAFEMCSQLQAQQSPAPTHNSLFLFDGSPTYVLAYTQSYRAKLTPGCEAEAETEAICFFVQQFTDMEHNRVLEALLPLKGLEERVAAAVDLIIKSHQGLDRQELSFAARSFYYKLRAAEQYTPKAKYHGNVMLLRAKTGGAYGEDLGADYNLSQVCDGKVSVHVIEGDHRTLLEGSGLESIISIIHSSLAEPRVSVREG
Put plainly: Biochemical activity testing of human fatty acid synthase FASN (NADPH fluorescence intensity enzyme assay). Conditions: human recombinant FASN, enzyme assay. Summed up:
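Recombinant full-length human FASN from SF9 cells, preincubated with compound (10 concentrations, top 30 μM final, 1% DMSO) and NADPH ≥15 min at room temperature, pH 7.0. Acetyl-CoA and malonyl-CoA added; NADPH fluorescence (340/460 nm) read before and after 30 min. IC50 from signal difference, normalised to uninhibited reaction and GSK837149A zero control.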
A word on the IC50: it is the concentration that inhibits the measured activity by half. On to `CCC(=O)N[C@H]1CC[C@@H](n2cnnc2-c2ccc(-c3ccc4c(ccn4C)c3)cc2)C1` [Compound A97, N-((1S,3R)-3-{3-[4-(1-Methyl-1H-indol-5-yl)-phenyl]-[1,2,4]triazol-4-yl}-cyclopentyl)-propionamide], for which the IC50 is below 300 nM. The figure for `CCC(=O)N[C@H]1CC[C@@H](n2cnnc2-c2ccc(-c3cc4cn[nH]c4cc3C)cc2)C1` [Compound A98, N-((1S,3R)-3-{3-[4-(6-Methyl-1H-indazol-5-yl)-phenyl]-[1,2,4]triazol-4-yl}-cyclopentyl)-propionamide] is below 300 nM; for `CCNC(=O)[C@H]1CC[C@@H](n2nncc2-c2ccc(-c3ccc(C(N)=O)cc3)cc2)C1` [Compound A99, 4′-[3-((1R,3S)-3-Ethylcarbamoyl-cyclopentyl)-3H-[1,2,3]triazol-4-yl]-biphenyl-4-carboxylic acid amide] it is 300 to 3000 nM. The figure for `CCNC(=O)[C@H]1CC[C@@H](n2nncc2-c2ccc(-c3ccc(C(=O)O)cc3)cc2)C1` [Compound A100, 4′-[3-((1R,3S)-3-Ethylcarbamoyl-cyclopentyl)-3H-[1,2,3]triazol-4-yl]-biphenyl-4-carboxylic acid] is 300 to 3000 nM; for `CCNC(=O)[C@H]1CC[C@@H](n2nncc2-c2ccc(-c3ccc(OC)c(OC)c3)cc2)C1` [Compound A102, (1S,3R)-3-[5-(3′,4′-Dimethoxy-biphenyl-4-yl)-[1,2,3]triazol-1-yl]-cyclopentanecarboxylic acid ethylamide] it is below 300 nM.

For `CCNC(=O)[C@H]1CC[C@@H](n2nncc2-c2ccc(-c3ccc(OCC4CC4)cc3)cc2)C1` [Compound A103, (1S,3R)-3-[5-(4′-Cyclopropylmethoxy-biphenyl-4-yl)-[1,2,3]triazol-1-yl]-cyclopentanecarboxylic acid ethylamide], the half-inhibitory concentration (IC50) is below 300 nM. The same measure for `CCNC(=O)[C@H]1CC[C@@H](n2nncc2-c2ccc(-c3ccc(Cl)c(F)c3)cc2)C1` [Compound A104, (1S,3R)-3-[5-(4′-Chloro-3′-fluoro-biphenyl-4-yl)-[1,2,3]triazol-1-yl]-cyclopentanecarboxylic acid ethylamide]: below 300 nM; for `CCNC(=O)[C@H]1CC[C@@H](n2nncc2-c2ccc(-c3ccc(C#N)c(F)c3)cc2)C1` [Compound A105, (1S,3R)-3-[5-(4′-Cyano-3′-fluoro-biphenyl-4-yl)-[1,2,3]triazol-1-yl]-cyclopentanecarboxylic acid ethylamide]: below 300 nM. `CCNC(=O)[C@H]1CC[C@@H](n2nncc2-c2ccc(-c3ccc(C#N)cc3F)cc2)C1` [Compound A106, (1S,3R)-3-[5-(4′-Cyano-2′-fluoro-biphenyl-4-yl)-[1,2,3]triazol-1-yl]-cyclopentanecarboxylic acid ethylamide]: the IC50 is below 300 nM.

For `CCC(=O)N[C@H]1CC[C@@H](n2nncc2-c2ccc(-c3ccc4[nH]ccc4c3)nc2)C1` [Compound A107, N-((1S,3R)-3-{5-[6-(1H-Indol-5-yl)-pyridin-3-yl]-[1,2,3]triazol-1-yl}-cyclopentyl)-propionamide], the half-inhibitory concentration (IC50) was below 300 nM. On to `CCC(=O)N[C@H]1CC[C@@H](n2nncc2-c2ccc(-c3ccc4[nH]ccc4c3F)nc2)C1` [Compound A108, N-((1S,3R)-3-{5-[6-(4-Fluoro-1H-indol-5-yl)-pyridin-3-yl]-[1,2,3]triazol-1-yl}-cyclopentyl)-propionamide], for which the IC50 was below 300 nM. The figure for `CCC(=O)N[C@H]1CC[C@@H](n2nncc2-c2ccc(-c3ccc4nccn4c3)nc2)C1` [Compound A109, N-{(1S,3R)-3-[5-(6-Imidazo[1,2-a]pyridin-6-yl-pyridin-3-yl)-[1,2,3]triazol-1-yl]-cyclopentyl}-propionamide] is 300 to 3000 nM.

On to `CCC(=O)N[C@H]1CC[C@@H](n2nncc2-c2ccc(-c3ccc4[nH]ccc4c3F)cc2)C1` [Compound A110, N-((1S,3R)-3-{5-[4-(4-Fluoro-1H-indol-5-yl)-phenyl]-[1,2,3]triazol-1-yl}-cyclopentyl)-propionamide], for which the half-inhibitory concentration (IC50) is below 300 nM. The same measure for `CCC(=O)N[C@H]1CC[C@@H](n2nncc2-c2ccc(-c3ccc4nccn4c3)cc2)C1` [Compound A111, N-{(1S,3R)-3-[5-(4-Imidazo[1,2-a]pyridin-6-yl-phenyl)-[1,2,3]triazol-1-yl]-cyclopentyl}-propionamide]: below 300 nM; for `CCC(=O)N[C@H]1CC[C@@H](n2nncc2-c2ccc(-c3cc4cc[nH]c4cc3F)cc2)C1` [Compound A112, N-((1S,3R)-3-{5-[4-(6-Fluoro-1H-indol-5-yl)-phenyl]-[1,2,3]triazol-1-yl}-cyclopentyl)-propionamide]: below 300 nM. For `CCC(=O)N[C@H]1CC[C@@H](n2nncc2-c2ccc(-c3ccc4[nH]ccc4n3)cc2)C1` [Compound A113, N-((1S,3R)-3-{5-[4-(1H-Pyrrolo[3,2-b]pyridin-5-yl)-phenyl]-[1,2,3]triazol-1-yl}-cyclopentyl)-propionamide], the IC50 is below 300 nM.

For `CCC(=O)N[C@H]1CC[C@@H](n2nncc2-c2ccc(-c3nc4ccc(Cl)cc4o3)cn2)C1` [Compound A114, N-((1S,3R)-3-{5-[5-(6-Chloro-benzoxazol-2-yl)-pyridin-2-yl]-[1,2,3]triazol-1-yl}-cyclopentyl)-propionamide], the concentration for half-maximal inhibition (IC50) lay within 300 to 3000 nM.

As to `CCC(=O)N[C@H]1CC[C@@H](n2nncc2-c2ccc(-c3nc4ccccc4o3)cn2)C1` [Compound A115, N-{(1S,3R)-3-[5-(5-Benzoxazol-2-yl-pyridin-2-yl)-[1,2,3]triazol-1-yl]-cyclopentyl}-propionamide], the concentration for half-maximal inhibition (IC50) was below 300 nM. `CCC(=O)N[C@H]1CC[C@@H](n2nncc2-c2ccc(-c3ccc4[nH]ccc4c3F)cn2)C1` [Compound A116, N-((1S,3R)-3-{5-[5-(4-Fluoro-1H-indol-5-yl)-pyridin-2-yl]-[1,2,3]triazol-1-yl}-cyclopentyl)-propionamide]: the IC50 is below 300 nM.

Consider `CCC(=O)N[C@H]1CC[C@@H](n2nncc2-c2ccc(-c3ccc4[nH]ccc4c3)cn2)C1` [Compound A117, N-((1S,3R)-3-{5-[5-(1H-Indol-5-yl)-pyridin-2-yl]-[1,2,3]triazol-1-yl}-cyclopentyl)-propionamide], for which the half-inhibitory concentration (IC50) was below 300 nM.

Turning to `CCC(=O)N[C@H]1CC[C@@H](n2nncc2-c2ccc(-c3ccc4[nH]ccc4n3)cn2)C1` [Compound A118, N-((1S,3R)-3-{5-[5-(1H-Pyrrolo[3,2-b]pyridin-5-yl)-pyridin-2-yl]-[1,2,3]triazol-1-yl}-cyclopentyl)-propionamide], the concentration for half-maximal inhibition (IC50) was below 300 nM.

Turning to `CCC(=O)N[C@H]1CC[C@@H](n2nncc2-c2ccc(-c3ccc4[nH]ccc4c3F)c(F)c2)C1` [Compound A119, N-((1S,3R)-3-{5-[3-Fluoro-4-(4-fluoro-1H-indol-5-yl)-phenyl]-[1,2,3]triazol-1-yl}-cyclopentyl)-propionamide], the concentration for half-maximal inhibition (IC50) was below 300 nM. The figure for `CCC(=O)N[C@H]1CC[C@@H](n2nncc2-c2ccc(-c3cc4cc[nH]c4cc3F)c(F)c2)C1` [Compound A120, N-((1S,3R)-3-{5-[3-Fluoro-4-(6-fluoro-1H-indol-5-yl)-phenyl]-[1,2,3]triazol-1-yl}-cyclopentyl)-propionamide] is below 300 nM; for `CCC(=O)N[C@H]1CC[C@@H](n2nncc2-c2ccc(-c3ccc4cc[nH]c4c3)nc2)C1` [Compound A121, N-((1S,3R)-3-{5-[6-(1H-Indol-6-yl)-pyridin-3-yl]-[1,2,3]triazol-1-yl}-cyclopentyl)-propionamide] it is below 300 nM.

Regarding `CCC(=O)N[C@H]1CC[C@@H](n2nncc2-c2ccc(-c3ccc4ccn(C)c4c3)nc2)C1` [Compound A122, N-((1S,3R)-3-{5-[6-(1-Methyl-1H-indol-6-yl)-pyridin-3-yl]-[1,2,3]triazol-1-yl}-cyclopentyl)-propionamide], the 50% inhibitory concentration (IC50) was in the range of 300 to 3000 nM. The same measure for `CCC(=O)N[C@H]1CC[C@@H](n2nncc2-c2ccc(-c3cccc4[nH]ncc34)nc2)C1` [Compound A123, N-((1S,3R)-3-{5-[6-(1H-Indazol-4-yl)-pyridin-3-yl]-[1,2,3]triazol-1-yl}-cyclopentyl)-propionamide]: 300 to 3000 nM.
